Data from patent US10167262B2, “Herbicidal substituted 3-arylpyrazoles” (FMC CORPORATION, priority 2014, dated 2019).

Tested on: wheat (Triticum aestivum)
Test: Test A pre-/postemergence greenhouse herbicide test, visual injury rating 0-100
Assay type: in vivo
Conditions: Postemergence, 1000 g ai/ha
Summary of the method: (§1)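 Planting in a loam and sand mixture preceded a directed preemergence soil spray; postemergence spray was applied concurrently to one- to two-leaf plants. After roughly 10 days under glass, injury is scored visually against untreated controls, 0–100.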

| Structure (SMILES) | Plant response rating (0 to 100 scale), Wheat |
| --- | --- |
| Cn1cc(C(=O)c2ccccc2)c(-c2cc(F)cc(Cl)c2)n1 [Compound 47] | 0 |
| CCn1cc(C(=O)c2ccccc2)c(-c2cc(F)cc(C(F)(F)F)c2)n1 [Compound 48] | 0 |
| CCn1cc(C(=O)c2ccccc2)c(-c2cc(F)cc(Br)c2)n1 [Compound 10] | 0 |
| CCn1cc(C(=O)c2ccccc2)c(-c2cc(F)cc(Cl)c2)n1 [Compound 46] | 0 |

Same assay, conditions: Preemergence, 1000 g ai/ha

| Structure (SMILES) | Plant response rating (0 to 100 scale), Wheat |
| --- | --- |
| Cn1cc(C(=O)c2ccccc2)c(-c2cc(F)cc(Cl)c2)n1 [Compound 47] | 0 |
| CCn1cc(C(=O)c2ccccc2)c(-c2cc(F)cc(C(F)(F)F)c2)n1 [Compound 48] | 0 |
| CCn1cc(C(=O)c2ccccc2)c(-c2cc(F)cc(Br)c2)n1 [Compound 10] | 0 |
| CCn1cc(C(=O)c2ccccc2)c(-c2cc(F)cc(Cl)c2)n1 [Compound 46] | 0 |

Tested on: morningglory (Ipomoea spp.)
Test: as above
Assay type: in vivo
Conditions: Postemergence, 1000 g ai/ha
Summary of the method: as §1

| Structure (SMILES) | Plant response rating (0 to 100 scale), Morningglory |
| --- | --- |
| CCn1cc(C(=O)c2ccccc2)c(-c2cc(F)cc(C(F)(F)F)c2)n1 [Compound 48] | 20 |
| CCn1cc(C(=O)c2ccccc2)c(-c2cc(F)cc(Br)c2)n1 [Compound 10] | 0 |

Same assay, conditions: Preemergence, 1000 g ai/ha

| Structure (SMILES) | Plant response rating (0 to 100 scale), Morningglory |
| --- | --- |
| CCn1cc(C(=O)c2ccccc2)c(-c2cc(F)cc(C(F)(F)F)c2)n1 [Compound 48] | 0 |
| CCn1cc(C(=O)c2ccccc2)c(-c2cc(F)cc(Br)c2)n1 [Compound 10] | 0 |

Tested on: velvetleaf (Abutilon theophrasti)
Test: as above
Assay type: in vivo
Conditions: Postemergence, 1000 g ai/ha
Summary of the method: as §1

| Structure (SMILES) | Plant response rating (0 to 100 scale), Velvetleaf |
| --- | --- |
| Cn1cc(C(=O)c2ccccc2)c(-c2cc(F)cc(Cl)c2)n1 [Compound 47] | 90 |
| CCn1cc(C(=O)c2ccccc2)c(-c2cc(F)cc(C(F)(F)F)c2)n1 [Compound 48] | 90 |
| CCn1cc(C(=O)c2ccccc2)c(-c2cc(F)cc(Br)c2)n1 [Compound 10] | 90 |
| CCn1cc(C(=O)c2ccccc2)c(-c2cc(F)cc(Cl)c2)n1 [Compound 46] | 90 |

Same assay, conditions: Preemergence, 1000 g ai/ha

| Structure (SMILES) | Plant response rating (0 to 100 scale), Velvetleaf |
| --- | --- |
| Cn1cc(C(=O)c2ccccc2)c(-c2cc(F)cc(Cl)c2)n1 [Compound 47] | 90 |
| CCn1cc(C(=O)c2ccccc2)c(-c2cc(F)cc(C(F)(F)F)c2)n1 [Compound 48] | 80 |
| CCn1cc(C(=O)c2ccccc2)c(-c2cc(F)cc(Br)c2)n1 [Compound 10] | 90 |
| CCn1cc(C(=O)c2ccccc2)c(-c2cc(F)cc(Cl)c2)n1 [Compound 46] | 90 |

Tested on: corn (Zea mays)
Test: as above
Assay type: in vivo
Conditions: Postemergence, 1000 g ai/ha
Summary of the method: as §1

| Structure (SMILES) | Plant response rating (0 to 100 scale), Corn |
| --- | --- |
| Cn1cc(C(=O)c2ccccc2)c(-c2cc(F)cc(Cl)c2)n1 [Compound 47] | 0 |
| CCn1cc(C(=O)c2ccccc2)c(-c2cc(F)cc(C(F)(F)F)c2)n1 [Compound 48] | 0 |
| CCn1cc(C(=O)c2ccccc2)c(-c2cc(F)cc(Br)c2)n1 [Compound 10] | 0 |
| CCn1cc(C(=O)c2ccccc2)c(-c2cc(F)cc(Cl)c2)n1 [Compound 46] | 0 |

Same assay, conditions: Preemergence, 1000 g ai/ha

| Structure (SMILES) | Plant response rating (0 to 100 scale), Corn |
| --- | --- |
| Cn1cc(C(=O)c2ccccc2)c(-c2cc(F)cc(Cl)c2)n1 [Compound 47] | 0 |
| CCn1cc(C(=O)c2ccccc2)c(-c2cc(F)cc(C(F)(F)F)c2)n1 [Compound 48] | 0 |
| CCn1cc(C(=O)c2ccccc2)c(-c2cc(F)cc(Br)c2)n1 [Compound 10] | 0 |
| CCn1cc(C(=O)c2ccccc2)c(-c2cc(F)cc(Cl)c2)n1 [Compound 46] | 0 |

Tested on: barnyardgrass (Echinochloa crus-galli)
Test: as above
Assay type: in vivo
Conditions: Postemergence, 1000 g ai/ha
Summary of the method: as §1

| Structure (SMILES) | Plant response rating (0 to 100 scale), Barnyardgrass |
| --- | --- |
| Cn1cc(C(=O)c2ccccc2)c(-c2cc(F)cc(Cl)c2)n1 [Compound 47] | 0 |
| CCn1cc(C(=O)c2ccccc2)c(-c2cc(F)cc(C(F)(F)F)c2)n1 [Compound 48] | 20 |
| CCn1cc(C(=O)c2ccccc2)c(-c2cc(F)cc(Br)c2)n1 [Compound 10] | 0 |
| CCn1cc(C(=O)c2ccccc2)c(-c2cc(F)cc(Cl)c2)n1 [Compound 46] | 0 |

Same assay, conditions: Preemergence, 1000 g ai/ha

| Structure (SMILES) | Plant response rating (0 to 100 scale), Barnyardgrass |
| --- | --- |
| Cn1cc(C(=O)c2ccccc2)c(-c2cc(F)cc(Cl)c2)n1 [Compound 47] | 0 |
| CCn1cc(C(=O)c2ccccc2)c(-c2cc(F)cc(C(F)(F)F)c2)n1 [Compound 48] | 0 |
| CCn1cc(C(=O)c2ccccc2)c(-c2cc(F)cc(Br)c2)n1 [Compound 10] | 0 |
| CCn1cc(C(=O)c2ccccc2)c(-c2cc(F)cc(Cl)c2)n1 [Compound 46] | 0 |

Tested on: pigweed (Amaranthus retroflexus)
Test: as above
Assay type: in vivo
Conditions: Postemergence, 1000 g ai/ha
Summary of the method: as §1

| Structure (SMILES) | Plant response rating (0 to 100 scale), Pigweed |
| --- | --- |
| Cn1cc(C(=O)c2ccccc2)c(-c2cc(F)cc(Cl)c2)n1 [Compound 47] | 90 |
| CCn1cc(C(=O)c2ccccc2)c(-c2cc(F)cc(C(F)(F)F)c2)n1 [Compound 48] | 90 |
| CCn1cc(C(=O)c2ccccc2)c(-c2cc(F)cc(Br)c2)n1 [Compound 10] | 90 |
| CCn1cc(C(=O)c2ccccc2)c(-c2cc(F)cc(Cl)c2)n1 [Compound 46] | 90 |

Same assay, conditions: Preemergence, 1000 g ai/ha

| Structure (SMILES) | Plant response rating (0 to 100 scale), Pigweed |
| --- | --- |
| Cn1cc(C(=O)c2ccccc2)c(-c2cc(F)cc(Cl)c2)n1 [Compound 47] | 80 |
| CCn1cc(C(=O)c2ccccc2)c(-c2cc(F)cc(C(F)(F)F)c2)n1 [Compound 48] | 100 |
| CCn1cc(C(=O)c2ccccc2)c(-c2cc(F)cc(Br)c2)n1 [Compound 10] | 100 |
| CCn1cc(C(=O)c2ccccc2)c(-c2cc(F)cc(Cl)c2)n1 [Compound 46] | 100 |

Tested on: giant foxtail (Setaria faberii)
Test: as above
Assay type: in vivo
Conditions: Postemergence, 1000 g ai/ha
Summary of the method: as §1

| Structure (SMILES) | Plant response rating (0 to 100 scale), Foxtail, Giant |
| --- | --- |
| Cn1cc(C(=O)c2ccccc2)c(-c2cc(F)cc(Cl)c2)n1 [Compound 47] | 0 |
| CCn1cc(C(=O)c2ccccc2)c(-c2cc(F)cc(C(F)(F)F)c2)n1 [Compound 48] | 20 |
| CCn1cc(C(=O)c2ccccc2)c(-c2cc(F)cc(Br)c2)n1 [Compound 10] | 0 |
| CCn1cc(C(=O)c2ccccc2)c(-c2cc(F)cc(Cl)c2)n1 [Compound 46] | 0 |

Same assay, conditions: Preemergence, 1000 g ai/ha

| Structure (SMILES) | Plant response rating (0 to 100 scale), Foxtail, Giant |
| --- | --- |
| Cn1cc(C(=O)c2ccccc2)c(-c2cc(F)cc(Cl)c2)n1 [Compound 47] | 0 |
| CCn1cc(C(=O)c2ccccc2)c(-c2cc(F)cc(C(F)(F)F)c2)n1 [Compound 48] | 0 |
| CCn1cc(C(=O)c2ccccc2)c(-c2cc(F)cc(Br)c2)n1 [Compound 10] | 0 |
| CCn1cc(C(=O)c2ccccc2)c(-c2cc(F)cc(Cl)c2)n1 [Compound 46] | 0 |

Tested on: large (Lg) crabgrass (Digitaria sanguinalis)
Test: as above
Assay type: in vivo
Conditions: Postemergence, 1000 g ai/ha
Summary of the method: as §1

| Structure (SMILES) | Plant response rating (0 to 100 scale), Crabgrass, Large |
| --- | --- |
| Cn1cc(C(=O)c2ccccc2)c(-c2cc(F)cc(Cl)c2)n1 [Compound 47] | 0 |
| CCn1cc(C(=O)c2ccccc2)c(-c2cc(F)cc(C(F)(F)F)c2)n1 [Compound 48] | 20 |
| CCn1cc(C(=O)c2ccccc2)c(-c2cc(F)cc(Br)c2)n1 [Compound 10] | 0 |
| CCn1cc(C(=O)c2ccccc2)c(-c2cc(F)cc(Cl)c2)n1 [Compound 46] | 0 |

Same assay, conditions: Preemergence, 1000 g ai/ha

| Structure (SMILES) | Plant response rating (0 to 100 scale), Crabgrass, Large |
| --- | --- |
| Cn1cc(C(=O)c2ccccc2)c(-c2cc(F)cc(Cl)c2)n1 [Compound 47] | 0 |
| CCn1cc(C(=O)c2ccccc2)c(-c2cc(F)cc(C(F)(F)F)c2)n1 [Compound 48] | 0 |
| CCn1cc(C(=O)c2ccccc2)c(-c2cc(F)cc(Br)c2)n1 [Compound 10] | 0 |
| CCn1cc(C(=O)c2ccccc2)c(-c2cc(F)cc(Cl)c2)n1 [Compound 46] | 0 |

Tested on: rice (Oryza sativa)
Test: Test B flooded paddy test, plant response rating 0-100
Assay type: in vivo
Conditions: Flood, 250 g ai/ha; scale 0 to 100 (0 no effect, 100 complete control); 13 to 15 days
Source text: (§2) At time of treatment, test pots were flooded to 3 cm above the soil surface, treated by application of test compounds directly to the paddy water, and then maintained at that water depth for the duration of the test. Treated plants and controls were maintained in a greenhouse for 13 to 15 days, after which time all species were compared to controls and visually evaluated. […] A dash (-) response means no test result.

| Structure (SMILES) | Plant response rating, Rice |
| --- | --- |
| Cn1cc(C(=O)c2ccccc2)c(-c2cc(F)cc(Cl)c2)n1 [Compound 47] | 0 |
| CCn1cc(C(=O)c2ccccc2)c(-c2cc(F)cc(C(F)(F)F)c2)n1 [Compound 48] | 0 |
| CCn1cc(C(=O)c2ccccc2)c(-c2cc(F)cc(Br)c2)n1 [Compound 10] | 0 |
| CCn1cc(C(=O)c2ccccc2)c(-c2cc(F)cc(Cl)c2)n1 [Compound 46] | 0 |

Tested on: barnyardgrass (Echinochloa crus-galli)
Test: as above
Assay type: in vivo
Conditions: Flood, 250 g ai/ha; scale 0 to 100 (0 no effect, 100 complete control); 13 to 15 days
Source text: as §2

| Structure (SMILES) | Plant response rating, Barnyardgrass |
| --- | --- |
| Cn1cc(C(=O)c2ccccc2)c(-c2cc(F)cc(Cl)c2)n1 [Compound 47] | 0 |
| CCn1cc(C(=O)c2ccccc2)c(-c2cc(F)cc(C(F)(F)F)c2)n1 [Compound 48] | 0 |
| CCn1cc(C(=O)c2ccccc2)c(-c2cc(F)cc(Br)c2)n1 [Compound 10] | 0 |
| CCn1cc(C(=O)c2ccccc2)c(-c2cc(F)cc(Cl)c2)n1 [Compound 46] | 0 |

Tested on: sedge, umbrella (small-flower umbrella sedge, Cyperus difformis)
Test: as above
Assay type: in vivo
Conditions: Flood, 250 g ai/ha; scale 0 to 100 (0 no effect, 100 complete control); 13 to 15 days
Source text: as §2

| Structure (SMILES) | Plant response rating, Sedge, Umbrella |
| --- | --- |
| Cn1cc(C(=O)c2ccccc2)c(-c2cc(F)cc(Cl)c2)n1 [Compound 47] | 0 |
| CCn1cc(C(=O)c2ccccc2)c(-c2cc(F)cc(C(F)(F)F)c2)n1 [Compound 48] | 0 |
| CCn1cc(C(=O)c2ccccc2)c(-c2cc(F)cc(Br)c2)n1 [Compound 10] | 0 |
| CCn1cc(C(=O)c2ccccc2)c(-c2cc(F)cc(Cl)c2)n1 [Compound 46] | 0 |

Tested on: ducksalad (Heteranthera limosa)
Test: as above
Assay type: in vivo
Conditions: Flood, 250 g ai/ha; scale 0 to 100 (0 no effect, 100 complete control); 13 to 15 days
Source text: as §2

| Structure (SMILES) | Plant response rating, Ducksalad |
| --- | --- |
| Cn1cc(C(=O)c2ccccc2)c(-c2cc(F)cc(Cl)c2)n1 [Compound 47] | 0 |
| CCn1cc(C(=O)c2ccccc2)c(-c2cc(F)cc(C(F)(F)F)c2)n1 [Compound 48] | 0 |
| CCn1cc(C(=O)c2ccccc2)c(-c2cc(F)cc(Br)c2)n1 [Compound 10] | 0 |
| CCn1cc(C(=O)c2ccccc2)c(-c2cc(F)cc(Cl)c2)n1 [Compound 46] | 0 |
